≈ marks a conversion by molar mass, not a printed value.
Legend:
Format in all cases: functional, cell-based
HeLa = test: Cytotoxicity against human HeLa cells
L1210 = test: Cytotoxicity against mouse L1210 cells
[1] = Cytotoxicity against mouse Meth-A cells; settings: read-out: ED50 (the source's name)
[2] = Cytotoxicity against mouse LLC cells; settings: Lewis lung carcinoma, read-out: ED50 (the source's name)

SMILES	IC50 (HeLa; Homo sapiens, HeLa)	further results
CCOC(=O)C(C)CC(=O)C[C@@H](C)[C@H]1CC(=O)[C@@]2(C)C3=C(C(=O)[C@@H](OC(C)=O)[C@]12C)[C@@]1(C)CCC(=O)C(C)(C)[C@@H]1CC3=O (stereo not given in full)	11 µM	–
C/C(=C\CC[C@@H](C)[C@H]1CC[C@@]2(C)C3=C([C@@H](O)C[C@]12C)[C@@]1(C)CCC(=O)C(C)(C)[C@@H]1CC3=O)C(=O)O	11 µM	–
C/C(=C\CC[C@@H](C)[C@H]1C[C@H](O)[C@@]2(C)C3=CC[C@H]4C(C)(C)C(=O)CC[C@]4(C)C3=CC[C@]12C)C(=O)O	11 µM	–
C[C@H](CCC(=O)O)[C@H]1CC[C@@]2(C)C3=C(CC[C@]12C)[C@@]1(C)CCC(=O)C(C)(C)[C@@H]1CC3=O	11 µM	–
C/C(=C\CC[C@@H](C)[C@H]1CC[C@@]2(C)C3=C(CC[C@]12C)[C@@]1(C)CC[C@H](O)C(C)(C)[C@@H]1CC3=O)C(=O)O	> 300 µM	–
C/C(=C\CC[C@@H](C)[C@H]1CC[C@@]2(C)C3=C([C@H](O)C[C@]12C)[C@@]1(C)CCC(=O)C(C)(C)[C@@H]1CC3=O)C(=O)O	101 µM	–
COC(=O)C(C)CC(=O)C[C@@H](C)[C@H]1CC(=O)[C@@]2(C)C3=C(C(=O)[C@@H](OC(C)=O)[C@]12C)[C@@]1(C)CC[C@H](O)C(C)(C)[C@@H]1C[C@@H]3O (stereo not given in full)	101 µM	–
CC(=O)O[C@@H]1C(=O)C2=C([C@@H](O)C[C@H]3C(C)(C)[C@@H](O)CC[C@]23C)[C@]2(C)C(=O)C[C@H](/C(C)=C\C(=O)CC(C)C(=O)O)[C@@]12C (stereo not given in full)	101 µM	–
CC(CC(=O)C[C@@H](C)[C@H]1C[C@H](O)[C@@]2(C)C3=C(C(=O)C[C@]12C)[C@@]1(C)CC[C@H](O)C(C)(C)[C@@H]1C[C@@H]3O)C(=O)O (stereo not given in full)	101 µM	–
CC(=O)O[C@@H]1C(=O)C2=C([C@@H](O)C[C@H]3C(C)(C)C(=O)CC[C@]23C)[C@]2(C)C(=O)C[C@H](/C(C)=C\C(=O)CC(C)C(=O)O)[C@@]12C (stereo not given in full)	> 300 µM	–
CC(CC(=O)C[C@@H](C)[C@H]1CC(=O)[C@@]2(C)C3=C(C(=O)[C@@H](O)[C@]12C)[C@@]1(C)CCC(=O)C(C)(C)[C@@H]1C[C@@H]3O)C(=O)O (stereo not given in full)	> 300 µM	–
CC(CC(=O)C[C@@H](C)[C@H]1CC(=O)[C@@]2(C)C3=C(C(=O)[C@@H](O)[C@]12C)[C@@]1(C)CCC(=O)C(C)(C)[C@@H]1CC3=O)C(=O)O (stereo not given in full)	> 300 µM	–
CC(=O)OC1C[C@H]([C@H](C)CC/C=C(/C)C(=O)O)[C@@]2(C)CC=C3C(=CC[C@H]4C(C)(C)C(=O)CC[C@]34C)[C@]12C (stereo not given in full)	> 300 µM	–
CC(C)=CCC[C@@H](C=O)[C@H]1CC[C@@]2(C)C3=C(CC[C@]12C)[C@@]1(C)CC[C@H](O)C(C)(C)[C@@H]1CC3	–	IC50 (L1210): 34.4 µM
CC(CC(=O)C[C@@H](C)[C@H]1CC(=O)[C@@]2(C)C3=C(C(=O)C[C@]12C)[C@@]1(C)CCC(=O)C(C)(C)[C@@H]1C[C@@H]3O)C(=O)O (stereo in doubt; 10) [GANODERIC ACID D]	–	IC50 (HeLa; hela): 31 µM
CC(CC(=O)C[C@@H](C)[C@H]1CC(=O)[C@@]2(C)C3=C(C(=O)C[C@]12C)[C@@]1(C)CCC(=O)C(C)(C)[C@@H]1C[C@@H]3O)C(=O)O (stereo in doubt; 81) [GANODERIC ACID D]	–	IC50 (HeLa; hela): > 300 µM
C/C(=C\C(=O)CC(C)C(=O)O)[C@H]1C[C@H](O)[C@@]2(C)C3=C(C(=O)C[C@]12C)[C@@]1(C)CCC(=O)C(C)(C)[C@@H]1C[C@@H]3O (stereo not given in full) [GANODERENIC ACID A]	> 300 µM	–
C/C(=C\C(=O)CC(C)C(=O)O)[C@H]1CC(=O)[C@@]2(C)C3=C(C(=O)C[C@]12C)[C@@]1(C)CC[C@H](O)C(C)(C)[C@@H]1C[C@@H]3O (stereo not given in full) [GANODERENIC ACID B]	202 µM	–
C/C(=C\C(=O)CC(C)C(=O)O)[C@H]1CC(=O)[C@@]2(C)C3=C(C(=O)C[C@]12C)[C@@]1(C)CCC(=O)C(C)(C)[C@@H]1CC3=O (stereo not given in full) [GANODERENICACID F]	202 µM	–
CC(CC(=O)C[C@@H](C)[C@H]1CC(=O)[C@@]2(C)C3=C(C(=O)C[C@]12C)[C@@]1(C)CC[C@H](O)C(C)(C)[C@@H]1CC3=O)C(=O)O (stereo not given in full) [GANODERIC ACID AM1]	202 µM	–
C[C@H](CC(=O)C[C@@H](C)[C@H]1C[C@H](O)[C@@]2(C)C3=C(C(=O)C[C@]12C)[C@@]1(C)CCC(=O)C(C)(C)[C@@H]1C[C@@H]3O)C(=O)O [GANODERIC ACID A]	> 300 µM	–
COC(=O)[C@H](C)CC(=O)C[C@@H](C)[C@H]1CC(=O)[C@@]2(C)C3=C(C(=O)C[C@]12C)[C@@]1(C)CC[C@H](O)C(C)(C)[C@@H]1C[C@@H]3O [GANODERIC ACID B METHYL ESTER]	101 µM	–

SMILES	IC50 (HeLa; Homo sapiens, HeLa)	further results
CC(CC(=O)C[C@@H](C)[C@H]1CC(=O)[C@@]2(C)C3=C(C(=O)C[C@]12C)[C@@]1(C)CC[C@H](O)C(C)(C)[C@@H]1C[C@@H]3O)C(=O)O (stereo not given in full) [GANODERIC ACID B]	202 µM	–
C[C@H](CC(=O)C[C@@H](C)[C@H]1CC(=O)[C@@]2(C)C3=C(C(=O)C[C@]12C)[C@@]1(C)CCC(=O)C(C)(C)[C@@H]1CC3=O)C(=O)O [GANODERIC ACID E]	101 µM	–
CC(=O)O[C@@H]1C(=O)C2=C(C(=O)C[C@H]3C(C)(C)C(=O)CC[C@]23C)[C@]2(C)C(=O)C[C@H]([C@H](C)CC(=O)CC(C)C(=O)O)[C@@]12C (stereo not given in full) [GANODERIC ACID F]	> 300 µM	–
CC(CC(=O)C[C@@H](C)[C@H]1CC(=O)[C@@]2(C)C3=C(C(=O)[C@@H](O)[C@]12C)[C@@]1(C)CC[C@H](O)C(C)(C)[C@@H]1C[C@@H]3O)C(=O)O (stereo not given in full) [GANODERIC ACID G]	101 µM	–
CC(=O)O[C@@H]1C(=O)C2=C(C(=O)C[C@H]3C(C)(C)[C@@H](O)CC[C@]23C)[C@]2(C)C(=O)C[C@H]([C@H](C)CC(=O)CC(C)C(=O)O)[C@@]12C (stereo not given in full) [GANODERIC ACID H]	> 300 µM	–
CC(CC(=O)C[C@@H](C)[C@H]1C[C@H](O)[C@@]2(C)C3=C(C(=O)C[C@]12C)[C@@]1(C)CCC(=O)C(C)(C)[C@@H]1CC3=O)C(=O)O (stereo not given in full) [GANODERIC ACID J]	> 300 µM	–
CC(=O)O[C@@H]1C(=O)C2=C([C@@H](O)C[C@H]3C(C)(C)[C@@H](O)CC[C@]23C)[C@]2(C)C(=O)C[C@H]([C@H](C)CC(=O)CC(C)C(=O)O)[C@@]12C (stereo not given in full) [GANODERIC ACID K]	> 300 µM	–
C/C(=C\[C@@H](O)C[C@@H](C)[C@H]1CC(=O)[C@@]2(C)C3=C(C(=O)[C@@H](O)[C@]12C)[C@@]1(C)CC[C@H](O)C(C)(C)[C@@H]1CC3=O)C(=O)O [GANODERIC ACID THETA]	–	EC50 [1]: 2.3 µg/mL (≈ 4.33 µM); EC50 [2]: 2.3 µg/mL (≈ 4.33 µM)
C/C(=C\CC[C@@H](C)[C@H]1CC[C@@]2(C)C3=CC[C@H]4C(C)(C)[C@@H](O)CC[C@]4(C)C3=CC[C@]12C)C(=O)O [GANODERIC ACID Y]	11 µM	–
C[C@H](CC[C@@H](O)C(C)(C)O)[C@H]1CC[C@@]2(C)C3=CC[C@H]4C(C)(C)C(=O)CC[C@]4(C)C3=CC[C@]12C [GANODERMANONDIOL]	11 µM	EC50 [1]: 3.4 µg/mL (≈ 7.44 µM); EC50 [2]: 2.3 µg/mL (≈ 5.04 µM)
C[C@H](CC[C@H](O)[C@](C)(O)CO)[C@H]1CC[C@@]2(C)C3=CC[C@H]4C(C)(C)C(=O)CC[C@]4(C)C3=CC[C@]12C [GANODERMANONTRIOL]	11 µM	EC50 [1]: 2.3 µg/mL (≈ 4.87 µM); EC50 [2]: 2.3 µg/mL (≈ 4.87 µM)
C/C(=C\CC[C@@H](C)[C@H]1CC[C@@]2(C)C3=CC[C@H]4C(C)(C)[C@@H](O)CC[C@]4(C)C3=CC[C@]12C)CO [GANODEROL B]	101 µM	–
CC(CC(=O)C[C@@H](C)[C@H]1C[C@H](O)[C@@]2(C)C3=C(C(=O)C[C@]12C)[C@@]1(C)CCC(=O)C(C)(C)[C@@H]1CC3)C(=O)O (stereo not given in full) [GANOLUCIDIC ACID A]	101 µM	–
C/C(=C\CC[C@@H](C)[C@H]1C[C@H](O)[C@@]2(C)C3=C(C(=O)C[C@]12C)[C@@]1(C)CCC(=O)C(C)(C)[C@@H]1CC3)C(=O)O [GANOLUCIDIC ACID E]	11 µM	–
C/C(=C\CC[C@@H](C)[C@H]1CC[C@@]2(C)C3=C(CC[C@]12C)[C@@]1(C)CC[C@H](O)C(C)(C)[C@@H]1CC3=O)CO [LUCIDADIOL]	5 µM	–
C[C@H](CCC(=O)O)[C@H]1CC(=O)[C@@]2(C)C3=C(C(=O)C[C@]12C)[C@@]1(C)CCC(=O)C(C)(C)[C@@H]1C[C@@H]3O [LUCIDENIC ACID A]	> 300 µM	–
CC(=O)[C@H]1CC(=O)[C@@]2(C)C3=C(C(=O)C[C@]12C)[C@@]1(C)CC[C@H](O)C(C)(C)[C@@H]1C[C@@H]3O [LUCIDONE A]	101 µM	–
C[C@H](CC[C@H](O)C(C)(C)O)[C@H]1CC[C@@]2(C)C3=C(CC[C@]12C)[C@@]1(C)CCC(=O)C(C)(C)[C@@H]1CC3=O [LUCIDUMOL A]	11 µM	EC50 [1]: 2.3 µg/mL (≈ 4.87 µM); EC50 [2]: 2.3 µg/mL (≈ 4.87 µM)
COC(=O)C(C)CC(=O)C[C@@H](C)[C@H]1CC(=O)[C@@]2(C)C3=C(C(=O)[C@@H](OC(C)=O)[C@]12C)[C@@]1(C)CC[C@H](O)C(C)(C)[C@@H]1CC3=O (stereo not given in full) [METHYL GANODERATE H]	11 µM	–
COC(=O)CC[C@@H](C)[C@H]1CC(=O)[C@@]2(C)C3=C(C(=O)[C@@H](O)[C@]12C)[C@@]1(C)CC[C@H](O)C(C)(C)[C@@H]1C[C@@H]3O [METHYL LUCIDENATE C]	101 µM	–
CC(C)=CCC[C@@H](C(=O)O)[C@H]1CC[C@@]2(C)C3=C(CC[C@]12C)[C@@]1(C)CC[C@H](O)C(C)(C)[C@@H]1CC3 [TRAMETENOLIC ACID]	–	IC50 (L1210): 62.5 µM
